Results taken from PubChem BioAssay (NCI).
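GI50: concentration for 50% inhibition of growth. At the TGI there is no net growth.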

Legend:
Test in all cases: NCI-60 cell line screen, 384-well format
OVCAR-4 ovarian = system: OVCAR-4 ovarian
SN12C renal = system: SN12C renal
SK-MEL-28 melanoma = system: SK-MEL-28 melanoma
KM12 colon = system: KM12 colon
HOP-92 NSCLC = system: HOP-92 NSCLC
COLO 205 colon = system: COLO 205 colon
HL-60(TB) leukemia = system: HL-60(TB) leukemia
SK-OV-3 ovarian = system: SK-OV-3 ovarian
LOX IMVI melanoma = system: LOX IMVI melanoma
NCI-H226 lung = system: NCI-H226 lung
IGROV1 ovarian = system: IGROV1 ovarian
RXF 393 renal = system: RXF 393 renal
HT29 colon = system: HT29 colon
MOLT-4 leukemia = system: MOLT-4 leukemia
PC-3 prostate = system: PC-3 prostate
SF-539 CNS = system: SF-539 CNS
K-562 leukemia = system: K-562 leukemia
SNB-19 CNS = system: SNB-19 CNS
SF-268 CNS = system: SF-268 CNS
HCT-116 colon = system: HCT-116 colon
BT-549 breast = system: BT-549 breast
SR leukemia = system: SR leukemia
HS 578T breast = system: HS 578T breast
HCC-2998 colon = system: HCC-2998 colon
CAKI-1 renal = system: CAKI-1 renal
SW-620 colon = system: SW-620 colon
SNB-75 CNS = system: SNB-75 CNS
SF-295 CNS = system: SF-295 CNS
NCI-H322M lung = system: NCI-H322M lung
NCI-H23 lung = system: NCI-H23 lung
UACC-257 melanoma = system: UACC-257 melanoma
NCI/ADR-RES ovarian = system: NCI/ADR-RES ovarian
UO-31 renal = system: UO-31 renal
MDA-MB-468 breast = system: MDA-MB-468 breast
TK-10 renal = system: TK-10 renal
M14 melanoma = system: M14 melanoma
EKVX NSCLC = system: EKVX NSCLC
HOP-62 NSCLC = system: HOP-62 NSCLC
A549 NSCLC = system: A549 NSCLC
CCRF-CEM leukemia = system: CCRF-CEM leukemia
OVCAR-8 ovarian = system: OVCAR-8 ovarian
ACHN renal = system: ACHN renal
MDA-MB-231 breast = system: MDA-MB-231 breast
A498 renal = system: A498 renal
MALME-3M melanoma = system: MALME-3M melanoma
HCT-15 colon = system: HCT-15 colon
DU-145 prostate = system: DU-145 prostate
OVCAR-3 ovarian = system: OVCAR-3 ovarian

With `O=C(O)C1(Cc2cccc(Nc3nccs3)n2)CCC(Oc2cccc(Cl)c2F)CC1` (stereo unspecified) the GI50 (OVCAR-4 ovarian) was 16.6 µM, the TGI (OVCAR-4 ovarian) was 58.5 µM and the GI50 (SN12C renal) was 11.1 µM. For the same compound, the TGI (SN12C renal) was 26.4 µM, the GI50 (SK-MEL-28 melanoma) was 15.7 µM and the TGI (SK-MEL-28 melanoma) was 61.1 µM. For the same compound, the GI50 (KM12 colon) was 0.124 µM, the TGI (KM12 colon) was 16.1 µM and the GI50 (HOP-92 NSCLC) was 10.4 µM. It also gave a TGI (HOP-92 NSCLC) of 22.9 µM, a GI50 (COLO 205 colon) of 0.609 µM and a TGI (COLO 205 colon) of 21.7 µM. For the same compound, the GI50 (HL-60(TB) leukemia) was 0.397 µM, the TGI (HL-60(TB) leukemia) was 1.53 µM and the GI50 (SK-OV-3 ovarian) was 11.5 µM. The TGI (SK-OV-3 ovarian) was 26.3 µM, the GI50 (LOX IMVI melanoma) was 10.3 µM and the TGI (LOX IMVI melanoma) was 22.1 µM. It also gave a GI50 (NCI-H226 lung) of 3.06 µM, a TGI (NCI-H226 lung) of 20.1 µM and a GI50 (IGROV1 ovarian) of 13.4 µM. For the same compound, the TGI (IGROV1 ovarian) was 27.6 µM, the GI50 (RXF 393 renal) was 0.358 µM and the TGI (RXF 393 renal) was 12.3 µM. For the same compound, the GI50 (HT29 colon) was 4.21 µM, the TGI (HT29 colon) was 17.1 µM and the GI50 (MOLT-4 leukemia) was 0.0886 µM. It also gave a TGI (MOLT-4 leukemia) of 1.05 µM, a GI50 (PC-3 prostate) of 11.7 µM and a TGI (PC-3 prostate) of 24.7 µM. For the same compound, the GI50 (SF-539 CNS) was 3.09 µM, the TGI (SF-539 CNS) was 20.6 µM and the GI50 (K-562 leukemia) was 0.313 µM. The TGI (K-562 leukemia) was 1.27 µM, the GI50 (SNB-19 CNS) was 12.1 µM and the TGI (SNB-19 CNS) was 29.6 µM. The GI50 (SF-268 CNS) was 0.3 µM, the TGI (SF-268 CNS) was 28 µM and the GI50 (HCT-116 colon) was 0.0796 µM. The TGI (HCT-116 colon) was 17.6 µM, the GI50 (BT-549 breast) was 0.573 µM and the TGI (BT-549 breast) was 22.3 µM. For the same compound, the GI50 (SR leukemia) was 0.0417 µM, the TGI (SR leukemia) was 0.105 µM and the GI50 (HS 578T breast) was 0.0962 µM. It also gave a TGI (HS 578T breast) of 17.9 µM, a GI50 (HCC-2998 colon) of 16 µM and a TGI (HCC-2998 colon) of 29.7 µM. For the same compound, the GI50 (CAKI-1 renal) was 11.3 µM, the TGI (CAKI-1 renal) was 25.5 µM and the GI50 (SW-620 colon) was 1.2 µM. It also gave a TGI (SW-620 colon) of 19.9 µM, a GI50 (SNB-75 CNS) of 0.972 µM and a TGI (SNB-75 CNS) of 28.5 µM. The GI50 (SF-295 CNS) was 2.02 µM, the TGI (SF-295 CNS) was 23.4 µM and the GI50 (NCI-H322M lung) was 16.5 µM. The TGI (NCI-H322M lung) was 32.6 µM, the GI50 (NCI-H23 lung) was 0.562 µM and the TGI (NCI-H23 lung) was 20.8 µM. The GI50 (UACC-257 melanoma) was 19.6 µM, the TGI (UACC-257 melanoma) was 54.5 µM and the GI50 (NCI/ADR-RES ovarian) was 0.329 µM. The TGI (NCI/ADR-RES ovarian) was 13.3 µM, the GI50 (UO-31 renal) was 14 µM and the TGI (UO-31 renal) was 27.7 µM. The GI50 (MDA-MB-468 breast) was 0.122 µM, the TGI (MDA-MB-468 breast) was 0.288 µM and the GI50 (TK-10 renal) was 13.3 µM. The TGI (TK-10 renal) was 31.3 µM, the GI50 (M14 melanoma) was 0.381 µM and the TGI (M14 melanoma) was 21.4 µM. The GI50 (EKVX NSCLC) was 10.1 µM, the TGI (EKVX NSCLC) was 24.5 µM and the GI50 (HOP-62 NSCLC) was 1.89 µM. The TGI (HOP-62 NSCLC) was 20.2 µM, the GI50 (A549 NSCLC) was 8.56 µM and the TGI (A549 NSCLC) was 24.2 µM. For the same compound, the GI50 (CCRF-CEM leukemia) was 0.249 µM, the TGI (CCRF-CEM leukemia) was 1.1 µM and the GI50 (OVCAR-8 ovarian) was 0.46 µM. The TGI (OVCAR-8 ovarian) was 20.3 µM, the GI50 (ACHN renal) was 14.6 µM and the TGI (ACHN renal) was 48.9 µM. It also gave a GI50 (MDA-MB-231 breast) of 11.7 µM, a TGI (MDA-MB-231 breast) of 31.3 µM and a GI50 (A498 renal) of 11.6 µM. For the same compound, the TGI (A498 renal) was 25 µM, the GI50 (MALME-3M melanoma) was 18.2 µM and the TGI (MALME-3M melanoma) was 37.4 µM. It also gave a GI50 (HCT-15 colon) of 5.24 µM, a TGI (HCT-15 colon) of 21.3 µM and a GI50 (DU-145 prostate) of 10.7 µM. For the same compound, the TGI (DU-145 prostate) was 26.2 µM, the GI50 (OVCAR-3 ovarian) was 0.41 µM and the TGI (OVCAR-3 ovarian) was 18.2 µM.
